Tests used:
[1] = pH of tap water containing acids and alkaline modifiers, before and after contact with chicken breast; type: physicochemical; conditions: for pH after 1 hour: 1 hour at 4° C. with chicken breast; for pH initial: tap water 4° C., before addition of poultry
Description: Organic acids were added to plastic containers containing 5.0 L of tap water at 4° C. The alkaline modifiers, NaOH, Na2CO3, Na2CO3.1.5H2O2, Na3PO4, were added to the solution in the plastic container in an amount sufficient to bring pH to about 7-9 depending upon the pKa of the organic acid. Then, 5 pieces of chicken breast weighing about 200 gram each were added to each container. The solution was then incubated for one hour at 4° C., with periodic stirring. The pH was measured immediately before the addition of the poultry and then after the 1 hour incubation at 4° C.

[2] = test system: Salmonella enterica ATCC 14028; experiment: Salmonella suspension testing method; type: cell-based; conditions: for Average Log10 reduction: 60 min treatment, 5% organic load; for kill of Salmonella: organic acid with addition of percarbonate, relatively high pH
Description: The effect of organic acids and alkaline modifiers on microbial viability was assayed using a Salmonella suspension testing method as described below. […] A 1:5 dilution of organism was prepared in Butterfield's buffer. This dilution was added in equal parts to sterile fetal bovine serum in order to produce a working inoculum containing a 50% organic load. […] Then, a 1 mL aliquot of working inoculum was added to the test solution and vortexed briefly to mix. A 1 mL aliquot was removed from the mixture at 1, 30, and 60 minutes following inoculation, and immediately added to a 9 mL volume of Letheen neutralizing broth. This broth was then vortex mixed, diluted serially into Butterfield's buffer, and the dilutions plated on 3[…] Aerobic Count Plates. The plates were incubated for 24-48 hours at 35° C., and then counted manually. Log 10 calculations were performed to obtain the Log 10 CFU/mL of the solutions at each time point.

[3] = Concentration of PAA and H2O2 in the presence of alkaline modifiers; type: physicochemical; conditions: for effect of alkaline modifier on concentration of both PAA and hydrogen peroxide: PAA solution with the alkaline modifier, 1 hour at 4° C.; for H2O2, ppm in 1 hour / PAA, ppm in 1 hour: after 1 hour at 4° C.; for H2O2, ppm Initial / PAA, ppm Initial: immediately after preparation
[4] = test system: Aerobic Plate Count (APC); experiment: Microbial load of rinses from treated poultry offal: Aerobic Plate Count; type: cell-based; conditions: 8-10 seconds
Description: (§1) For offal treatments, mixtures of organic acids and peroxyacids were prepared by weighing the components and dissolving them in water to reach the desired concentration. Peracetic acid (PAA) solutions were prepared by diluting VigorOx® (PeroxyChem LLC) with tap water to obtain the target concentration.
(§2) The pH of the aseptic compositions was adjusted using a 25% aqueous solution of NaOH, solid sodium carbonate, or sodium bicarbonate. The amount of active oxygen was confirmed by titration on an autotitrator and by using Chemetrics test kits K-7913F and K-5543.
(§3) Fresh poultry livers and gizzards, and lamb livers and kidneys were purchased untreated and fresh (not frozen) from local suppliers. All offal was kept refrigerated before testing.
(§4) Poultry offal was collected into a single large plastic bag. A gloved hand was used to remove either 6 whole, bi-lobed livers or 12 gizzards and place them in 350 mL of either water, an 840 ppm PAA solution, or an 840 ppm PAA solution that had been adjusted to a pH of 10.2 with sodium hydroxide and used within 5 minutes of pH adjustment. The samples were incubated in the solutions for 8-10 seconds. After treatment, a freshly gloved hand was used to remove 2 livers (or 4 gizzards) into a small plastic strainer. The treated samples were allowed to drain for 30 to 60 seconds to remove excess moisture. Each set of 2 livers (or 4 gizzards) was then placed into 100 mL peptone buffer and rinsed in the peptone for 30 seconds. A few milliliters of rinsate were removed by transfer pipette and kept on ice for dilution and plating. The plates were incubated for 24 to 48 hours at 35° C. and counted manually to determine the Aerobic Plate Count (APC) and the Enterobacteriaceae count (EBC). The color of the treated samples was noted by visual inspection.

[5] = test system: Enterobacteriaceae; experiment: Microbial load of rinses from treated poultry offal: Enterobacteriaceae count; type: cell-based; conditions: 8-10 seconds
Description: as §1, §2, §3, §4

[6] = test system: Aerobic Plate Count (APC); experiment: Microbial reduction after PAA treatment of chicken livers: Aerobic Plate Count; type: cell-based; conditions: PAA 1000 ppm
Description: (§5) Six chicken livers were added to 500 mL of peracetic acid solution, and incubated room temperature for 5, 15, or 30 seconds. Then the livers were removed and quickly added individually to 100 mL Buffered Peptone Water in a sterile cup, 1 liver per cup. Cups were manually shaken for 30 seconds and the liquid was sampled for plating. Sample rinses were serially diluted using Butterfield's buffer and plated on Aerobic Plate Count (APC) and Escherichia coli Coliform (ECC) plates. The plates were incubated for 24-48 hours at a temperature of 35° C., and then counted manually. Log10 calculations were performed to obtain the Log10 CFU/mL of the solutions at each time point.

[7] = test system: Escherichia coli Coliform (ECC); experiment: Microbial reduction after PAA treatment of chicken livers: Escherichia coli Coliform plates; type: cell-based; conditions: PAA 1000 ppm
Description: as §5

[8] = test system: Aerobic Plate Count (APC); experiment: Microbial reduction after PAA treatment of lamb livers: Aerobic Plate Count; type: cell-based; conditions: PAA 100 ppm
[9] = Glycolic 250 ppm, alkaline modifier Na2CO3
[10] = Glycolic 250 ppm, alkaline modifier NaOH
[11] = Glycolic 500 ppm, no alkaline modifier
[12] = additive Na5P3O10 125 ppm, initial PAA 10.4 ppm
[13] = additive Na5P3O10 125 ppm, initial PAA 30.1 ppm
[14] = Citric 2,500 ppm, alkaline modifier Na2CO3•1.5H2O2
[15] = Citric 5,000 ppm, alkaline modifier Na2CO3•1.5H2O2
[16] = Gizzards, 840 ppm PAA adjusted to pH 10.2 with sodium hydroxide
[17] = Livers, 840 ppm PAA adjusted to pH 10.2 with sodium hydroxide
[18] = alkaline modifier Na2CO3, pH 8.5, treatment time 5 seconds
[19] = alkaline modifier NaHCO3, pH 7.5, treatment time 15 seconds
[20] = alkaline modifier NaHCO3, pH 7.5, treatment time 30 seconds
[21] = alkaline modifier NaOH, pH 7.5, treatment time 5 seconds
[22] = no alkaline modifier, pH 3.1, treatment time 5 seconds
[23] = no alkaline modifier, pH 3.1, treatment time 15 seconds

O=C(O)CO [Glycolic, glycolic acid]
pH after 1 hour [1, 9]: 6.8
pH initial [1, 9]: 6.7
pH after 1 hour [1, 10]: 7.5
pH initial [1, 10]: 9.0
pH after 1 hour [1, 11]: 4.5
pH initial [1, 11]: 3.6

CCC(=O)O [Propionic, propionic acid]
Average Log10 reduction ([2]; Propionic 0.5%, alkaline modifier Na2CO3•1.5H2O2, pH 7.5): 7.07
Average Log10 reduction ([2]; Propionic 0.5%, no alkaline modifier, pH 3.1): 2.15
kill of Salmonella [2]: virtually complete kill

O=C([O-])O.[Na+] [NaHCO3, sodium bicarbonate]
effect of alkaline modifier on concentration of both PAA and hydrogen peroxide [3]: remained relatively stable
H2O2, ppm in 1 hour ([3]; additive NaHCO3 125 ppm): 6.3 ppm
PAA, ppm in 1 hour ([3]; additive NaHCO3 125 ppm): 8.5 ppm
H2O2, ppm Initial ([3]; additive NaHCO3 125 ppm): 6.5 ppm
PAA, ppm Initial ([3]; additive NaHCO3 125 ppm): 10.4 ppm
H2O2, ppm in 1 hour ([3]; additive NaHCO3 250 ppm): 18.9 ppm
PAA, ppm in 1 hour ([3]; additive NaHCO3 250 ppm): 29.6 ppm
H2O2, ppm Initial ([3]; additive NaHCO3 250 ppm): 19.9 ppm
PAA, ppm Initial ([3]; additive NaHCO3 250 ppm): 30.3 ppm
H2O2, ppm in 1 hour ([3]; additive NaHCO3 275 ppm): 11 ppm
PAA, ppm in 1 hour ([3]; additive NaHCO3 275 ppm): 23 ppm
H2O2, ppm Initial ([3]; additive NaHCO3 275 ppm): 11 ppm
PAA, ppm Initial ([3]; additive NaHCO3 275 ppm): 25 ppm

O=P(O)(O)OP(=O)(O)OP(=O)(O)O [Na5P3O10, sodium tripolyphosphate, reference compound]
effect of alkaline modifier on concentration of both PAA and hydrogen peroxide [3]: relatively rapid decrease
PAA, ppm Initial ([3]; additive Na5P3O10 125 ppm, higher PAA level): 30.1 ppm
H2O2, ppm in 1 hour [3, 12]: 1.4 ppm
PAA, ppm in 1 hour [3, 12]: 4.0 ppm
H2O2, ppm Initial [3, 12]: 6.5 ppm
H2O2, ppm in 1 hour [3, 13]: 4.8 ppm
PAA, ppm in 1 hour [3, 13]: 8.6 ppm
H2O2, ppm Initial [3, 13]: 20.1 ppm
PAA, ppm Initial ([3]; additive Na5P3O10 125 ppm, lower PAA level): 10.4 ppm

O=C(O)CC(O)(CC(=O)O)C(=O)O [Citric, citric acid]
pH after 1 hour [1, 14]: 7.5
pH initial [1, 14]: 7.5
pH after 1 hour [1, 15]: 8.5
pH initial [1, 15]: 8.5
Average Log10 reduction ([2]; Citric 0.5%, alkaline modifier Na2CO3•1.5H2O2, pH 7.5): 7.09
Average Log10 reduction ([2]; Citric 0.5%, no alkaline modifier, pH 2.4): 3.83
kill of Salmonella [2]: virtually complete kill

CC(=O)OO [PAA, Peracetic acid]
H2O2, ppm in 1 hour ([3]; no additive (0 ppm)): 11 ppm
PAA, ppm in 1 hour ([3]; no additive (0 ppm)): 24 ppm
H2O2, ppm Initial ([3]; no additive (0 ppm)): 11 ppm
PAA, ppm Initial ([3]; no additive (0 ppm)): 25 ppm
Log APC [4, 16]: 0.85
Log APC ([4]; Gizzards, 840 ppm PAA, pH 3.4): 0.70
Log APC [4, 17]: 0.30
Log APC ([4]; Livers, 840 ppm PAA, pH 3.4): 0.00
Log EBC [5, 16]: 0.00
Log EBC ([5]; Gizzards, 840 ppm PAA, pH 3.4): 0.00
Log EBC [5, 17]: 0.00
Log EBC ([5]; Livers, 840 ppm PAA, pH 3.4): 0.00
APC log10 reduction [6, 18]: 1.1
APC log10 reduction [6, 19]: 1.1
APC log10 reduction [6, 20]: 1.7
APC log10 reduction [6, 21]: 1.1
APC log10 reduction [6, 22]: 0.9
APC log10 reduction [6, 23]: 1.2
ECC log10 reduction [7, 18]: 1.1
ECC log10 reduction [7, 19]: 3.1
ECC log10 reduction [7, 20]: 3.1
ECC log10 reduction [7, 21]: 0.8
ECC log10 reduction [7, 22]: 0.5
ECC log10 reduction [7, 23]: 1.1
APC log10 reduction ([8]; additive Citric acid, 2%, pH 7.5 (sodium carbonate), treatment time 10 minutes): 1.8
APC log10 reduction ([8]; additive Lactic acid, 2%, pH 7.5 (sodium carbonate), treatment time 10 minutes): 1.8
APC log10 reduction ([8]; no additive, pH 4.1, treatment time 10 minutes): 2.2
APC log10 reduction ([8]; no additive, pH 7.5 (adjusted with sodium carbonate), treatment time 10 minutes): 3.0

[Na+].[OH-] [NaOH, sodium hydroxide, reference compound]
effect of alkaline modifier on concentration of both PAA and hydrogen peroxide [3]: relatively rapid decrease
H2O2, ppm in 1 hour ([3]; additive NaOH 100 ppm): 4 ppm
PAA, ppm in 1 hour ([3]; additive NaOH 100 ppm): 8 ppm
H2O2, ppm Initial ([3]; additive NaOH 100 ppm): 11 ppm
PAA, ppm Initial ([3]; additive NaOH 100 ppm): 25 ppm

— US11793208B2, “Antimicrobial treatment of animal carcasses and food products” (EVONIK OPERATIONS GMBH, priority 2017, dated 2023)
